The NIST ThermoML archive (doi:10.1016/j.tca.2012.02.002)
Where “and” joins values, the source holds several entries; their conditions need not be identical. Equal values may be shown once.

Assay: molar heat capacity at constant pressure
Conditions: 101.33 kPa, Crystal

O=P([O-])([O-])[O-].[Er+3] [erbium phosphate]
Conditions	molar heat capacity at constant pressure
2 K, Drop calorimetry	0.189 J/K/mol
2.05 K, Relaxation Calorimetry	0.1821 J/K/mol
2.06 K, Relaxation Calorimetry	0.1815 J/K/mol
2.15 K, Relaxation Calorimetry	0.169 J/K/mol and 0.1693 J/K/mol
2.23 K, Relaxation Calorimetry	0.1585 J/K/mol
2.24 K, Relaxation Calorimetry	0.1587 J/K/mol
2.33 K, Relaxation Calorimetry	0.1486 J/K/mol and 0.1492 J/K/mol
2.42 K, Relaxation Calorimetry	0.1398 J/K/mol
2.52 K, Relaxation Calorimetry	0.1308 J/K/mol and 0.1303 J/K/mol
2.62 K, Relaxation Calorimetry	0.1226 J/K/mol
2.63 K, Relaxation Calorimetry	0.1216 J/K/mol
2.73 K, Relaxation Calorimetry	0.1149 J/K/mol
2.74 K, Relaxation Calorimetry	0.1147 J/K/mol
2.84 K, Relaxation Calorimetry	0.1079 J/K/mol
2.85 K, Relaxation Calorimetry	0.1075 J/K/mol
2.96 K, Relaxation Calorimetry	0.1012 J/K/mol
2.97 K, Relaxation Calorimetry	0.101 J/K/mol
3 K, Drop calorimetry	0.0991 J/K/mol
3.08 K, Relaxation Calorimetry	0.09512 J/K/mol
3.09 K, Relaxation Calorimetry	0.095 J/K/mol
3.21 K, Relaxation Calorimetry	0.08975 J/K/mol
3.22 K, Relaxation Calorimetry	0.0889 J/K/mol
3.34 K, Relaxation Calorimetry	0.08523 J/K/mol
3.35 K, Relaxation Calorimetry	0.0846 J/K/mol
3.48 K, Relaxation Calorimetry	0.08127 J/K/mol and 0.0813 J/K/mol
3.62 K, Relaxation Calorimetry	0.07825 J/K/mol
3.64 K, Relaxation Calorimetry	0.0777 J/K/mol
3.77 K, Relaxation Calorimetry	0.07611 J/K/mol and 0.0763 J/K/mol
3.93 K, Relaxation Calorimetry	0.0754 J/K/mol
4 K, Drop calorimetry	0.0755 J/K/mol
4.1 K, Relaxation Calorimetry	0.07633 J/K/mol and 0.0764 J/K/mol
4.27 K, Relaxation Calorimetry	0.07937 J/K/mol and 0.079 J/K/mol
4.44 K, Relaxation Calorimetry	0.08477 J/K/mol
4.45 K, Relaxation Calorimetry	0.0843 J/K/mol
4.62 K, Relaxation Calorimetry	0.09293 J/K/mol
4.63 K, Relaxation Calorimetry	0.0925 J/K/mol
4.82 K, Relaxation Calorimetry	0.1048 J/K/mol and 0.1045 J/K/mol
5.02 K, Relaxation Calorimetry	0.1211 J/K/mol and 0.1208 J/K/mol
5.22 K, Relaxation Calorimetry	0.1421 J/K/mol and 0.142 J/K/mol
5.44 K, Relaxation Calorimetry	0.1701 J/K/mol and 0.1698 J/K/mol
5.67 K, Relaxation Calorimetry	0.2055 J/K/mol and 0.2049 J/K/mol
5.91 K, Relaxation Calorimetry	0.2491 J/K/mol and 0.2489 J/K/mol
6 K, Drop calorimetry	0.268 J/K/mol
6.15 K, Relaxation Calorimetry	0.3031 J/K/mol and 0.3029 J/K/mol
6.41 K, Relaxation Calorimetry	0.3662 J/K/mol and 0.3497 J/K/mol
6.67 K, Relaxation Calorimetry	0.4408 J/K/mol
6.68 K, Relaxation Calorimetry	0.4451 J/K/mol
6.96 K, Relaxation Calorimetry	0.5353 J/K/mol and 0.5363 J/K/mol
7.24 K, Relaxation Calorimetry	0.6377 J/K/mol
7.25 K, Relaxation Calorimetry	0.6369 J/K/mol
7.55 K, Relaxation Calorimetry	0.7594 J/K/mol and 0.7584 J/K/mol
7.87 K, Relaxation Calorimetry	0.893 J/K/mol and 0.8931 J/K/mol
8 K, Drop calorimetry	0.956 J/K/mol
8.2 K, Relaxation Calorimetry	1.047 J/K/mol and 1.049 J/K/mol
8.54 K, Relaxation Calorimetry	1.218 J/K/mol
8.56 K, Vacuum adiabatic calorimetry	1.262 J/K/mol
8.9 K, Relaxation Calorimetry	1.407 J/K/mol and 1.404 J/K/mol
9.19 K, Vacuum adiabatic calorimetry	1.587 J/K/mol
9.27 K, Relaxation Calorimetry	1.607 J/K/mol and 1.604 J/K/mol
9.65 K, Relaxation Calorimetry	1.831 J/K/mol
9.84 K, Vacuum adiabatic calorimetry	1.971 J/K/mol
10 K, Drop calorimetry	2.222 J/K/mol
10.05 K, Relaxation Calorimetry	2.057 J/K/mol and 2.046 J/K/mol
10.26 K, Relaxation Calorimetry	2.218 J/K/mol
10.52 K, Vacuum adiabatic calorimetry	2.384 J/K/mol
10.53 K, Relaxation Calorimetry	2.408 J/K/mol
10.66 K, Relaxation Calorimetry	2.462 J/K/mol
10.91 K, Relaxation Calorimetry	2.636 J/K/mol
11.1 K, Relaxation Calorimetry	2.733 J/K/mol
11.21 K, Vacuum adiabatic calorimetry	2.814 J/K/mol
11.35 K, Relaxation Calorimetry	2.908 J/K/mol
11.56 K, Relaxation Calorimetry	3.016 J/K/mol
11.81 K, Relaxation Calorimetry	3.191 J/K/mol
11.92 K, Vacuum adiabatic calorimetry	3.253 J/K/mol
12.04 K, Relaxation Calorimetry	3.31 J/K/mol
12.29 K, Relaxation Calorimetry	3.486 J/K/mol
12.53 K, Relaxation Calorimetry	3.616 J/K/mol
12.64 K, Vacuum adiabatic calorimetry	3.701 J/K/mol
12.78 K, Relaxation Calorimetry	3.791 J/K/mol
13.05 K, Relaxation Calorimetry	3.929 J/K/mol
13.3 K, Relaxation Calorimetry	4.098 J/K/mol
13.37 K, Vacuum adiabatic calorimetry	4.111 J/K/mol
13.59 K, Relaxation Calorimetry	4.242 J/K/mol
13.84 K, Relaxation Calorimetry	4.403 J/K/mol
14.12 K, Vacuum adiabatic calorimetry	4.51 J/K/mol
14.15 K, Relaxation Calorimetry	4.549 J/K/mol
14.41 K, Relaxation Calorimetry	4.708 J/K/mol
14.74 K, Relaxation Calorimetry	4.863 J/K/mol
14.88 K, Vacuum adiabatic calorimetry	4.899 J/K/mol
14.99 K, Relaxation Calorimetry	5.019 J/K/mol
15 K, Drop calorimetry	4.903 J/K/mol
15.35 K, Relaxation Calorimetry	5.181 J/K/mol
15.6 K, Relaxation Calorimetry	5.328 J/K/mol
15.65 K, Vacuum adiabatic calorimetry	5.247 J/K/mol
15.99 K, Relaxation Calorimetry	5.488 J/K/mol
16.24 K, Relaxation Calorimetry	5.627 J/K/mol
16.43 K, Vacuum adiabatic calorimetry	5.599 J/K/mol
16.65 K, Relaxation Calorimetry	5.792 J/K/mol
16.91 K, Relaxation Calorimetry	5.923 J/K/mol
17.21 K, Vacuum adiabatic calorimetry	5.933 J/K/mol
17.34 K, Relaxation Calorimetry	6.085 J/K/mol
17.6 K, Relaxation Calorimetry	6.206 J/K/mol
18 K, Vacuum adiabatic calorimetry	6.247 J/K/mol
18.06 K, Relaxation Calorimetry	6.369 J/K/mol
18.32 K, Relaxation Calorimetry	6.493 J/K/mol
18.8 K, Vacuum adiabatic calorimetry	6.533 J/K/mol
18.81 K, Relaxation Calorimetry	6.67 J/K/mol
19.07 K, Relaxation Calorimetry	6.774 J/K/mol
19.59 K, Vacuum adiabatic calorimetry	6.837 J/K/mol
19.6 K, Relaxation Calorimetry	6.935 J/K/mol
19.85 K, Relaxation Calorimetry	7.052 J/K/mol
20 K, Drop calorimetry	6.881 J/K/mol
20.41 K, Relaxation Calorimetry	7.222 J/K/mol
20.67 K, Relaxation Calorimetry	7.329 J/K/mol
20.84 K, Vacuum adiabatic calorimetry	7.265 J/K/mol
21.26 K, Relaxation Calorimetry	7.493 J/K/mol
21.52 K, Relaxation Calorimetry	7.59 J/K/mol
22.14 K, Relaxation Calorimetry	7.771 J/K/mol
22.39 K, Vacuum adiabatic calorimetry	7.793 J/K/mol
22.4 K, Relaxation Calorimetry	7.869 J/K/mol
23.06 K, Relaxation Calorimetry	8.068 J/K/mol
23.32 K, Relaxation Calorimetry	8.163 J/K/mol
23.97 K, Vacuum adiabatic calorimetry	8.29 J/K/mol
24.02 K, Relaxation Calorimetry	8.364 J/K/mol
24.29 K, Relaxation Calorimetry	8.456 J/K/mol
25 K, Drop calorimetry	8.631 J/K/mol
25.02 K, Relaxation Calorimetry	8.665 J/K/mol
25.28 K, Relaxation Calorimetry	8.765 J/K/mol
25.55 K, Vacuum adiabatic calorimetry	8.799 J/K/mol
26.06 K, Relaxation Calorimetry	9.002 J/K/mol
26.32 K, Relaxation Calorimetry	9.091 J/K/mol
27.13 K, Vacuum adiabatic calorimetry	9.314 J/K/mol
27.41 K, Relaxation Calorimetry	9.432 J/K/mol
28.27 K, Relaxation Calorimetry	9.673 J/K/mol
28.53 K, Relaxation Calorimetry	9.786 J/K/mol
28.72 K, Vacuum adiabatic calorimetry	9.871 J/K/mol
29.45 K, Relaxation Calorimetry	10.07 J/K/mol
29.72 K, Relaxation Calorimetry	10.17 J/K/mol
30 K, Drop calorimetry	10.43 J/K/mol
30.31 K, Vacuum adiabatic calorimetry	10.46 J/K/mol
30.68 K, Relaxation Calorimetry	10.5 J/K/mol
30.95 K, Relaxation Calorimetry	10.6 J/K/mol
31.9 K, Vacuum adiabatic calorimetry	11.11 J/K/mol
31.97 K, Relaxation Calorimetry	10.96 J/K/mol
32.22 K, Relaxation Calorimetry	11.08 J/K/mol
33.31 K, Relaxation Calorimetry	11.44 J/K/mol
33.49 K, Vacuum adiabatic calorimetry	11.75 J/K/mol
33.56 K, Relaxation Calorimetry	11.58 J/K/mol
34.69 K, Relaxation Calorimetry	11.99 J/K/mol
34.95 K, Relaxation Calorimetry	12.12 J/K/mol
35 K, Drop calorimetry	12.41 J/K/mol
35.09 K, Vacuum adiabatic calorimetry	12.32 J/K/mol
36.69 K, Vacuum adiabatic calorimetry	13.09 J/K/mol
38.29 K, Vacuum adiabatic calorimetry	13.85 J/K/mol
39.9 K, Vacuum adiabatic calorimetry	14.59 J/K/mol
40 K, Drop calorimetry	14.63 J/K/mol
41.51 K, Vacuum adiabatic calorimetry	15.35 J/K/mol
43.13 K, Vacuum adiabatic calorimetry	16.12 J/K/mol
44.75 K, Vacuum adiabatic calorimetry	16.95 J/K/mol
45 K, Drop calorimetry	17.07 J/K/mol
46.39 K, Vacuum adiabatic calorimetry	17.8 J/K/mol
